Experimental data as given in patent US20040203128A1, “Use of PP2A phosphatase modulators in the treatment of mental disorders” (priority 2002, published 2004).

How the values were obtained:
PP2A phosphatase = test: In vitro dephosphorylation of phosphorylated GST-2E11 with HTB-14 whole cell extracts; assay type: biochemical, Human; conditions: HTB-14 cell extracts plus 400 μM okadaic acid, 30 min, room temperature
Experimental: In vitro phosphorylated GST-2E11 fusion protein was incubated at room temperature for 30 min with 500 μg of whole cell extracts of Human glioblastoma, astrocytoma cell line (ATCC number: HTB-14) with or without 400 μM of the PP2A phosphatase inhibitor okadaic acid (Sigma). HTB-14 whole cell extracts were prepared as follow: cells were washed three times with ice-cold TBS buffer (10 mM Tris-HCl [pH 8.0], 120 mM NaCl) and lysed at 4° C. for 30 min in EBC buffer (50 mM Tris-HCl [pH 8.0], 120 mM NaCl, 0.5% Nonidet P-40). Then the lysate was centrifugated for 10 min at 13.000×g at 4° C. to pellet cell debris. Proteins present in the supernatant were quantified by the standard Bradford's method (Bio-Rad Protein Assay). The proteins were then resolved by 10% SDS-PAGE, and visualized by autoradiography.
The phosphorylated radiolabeled GST-2E11 proteins obtained from the previous assay were incubated in the presence of HTB-14 cell extracts containing the PP2A phosphatase to determine whether PP2A is capable of dephosphorylating GST-2E11 proteins. In this experiment, a protein that is dephosphorylated by PP2A is not radioactive after incubation in the presence of HTB-14 cell extracts any more. Thus dephosphorylation of the GST-2E11 protein is monitored by disappearance of the signal visualized by autoradiography. […]

GSK-3β = test: In vitro phosphorylation assay of GST-2E11 with recombinant GSK-3β kinase and PKA; assay type: biochemical; conditions: LiCl at final concentration 0, 8.3, 25, 75 and 225 mM; signal negatively correlated with concentration
Experimental: Expression and purification of the GST-2E11 fusion protein were performed as described above. Beads with bound fusion protein corresponding to 1 ml of bacterial clear lysate were washed three times in NETN and one time with HMK buffer without DTT (20 mM Tris-HCl [pH 7.5], 120 mM NaCl, 12 mM MgCl2). Beads were resuspended in 240 μl of reaction mix (24 μl of 10×HMK Buffer with 20 mM DTT, 40 units of Protein Kinase A Catalytic Subunit [PKA from bovine heart, 250 units/vial, Sigma] in 40 mM DTT, 5 μl of 24 mM ATP and 207 μl of distilled water) and incubated for 30 min at room temperature. Beads were then washed three times in NETN buffer and one time in GSK-3β reaction buffer (20 mM Tris-HCl [pH 7.5], 10 mM MgCl2, 5 mM DTT) (New England Biolabs). Beads were then resuspended in 50 μl of reaction mix (5 μl of 10×GSK-3β reaction buffer, 1 μl of [^32P]γATP 10mCi/ml, 50 U of recombinant GSK-3β[New England Biolabs], and distilled water for a final volume of 50 μl) and incubated at room temperature for 30 min. After three washes in NETN buffer, phosphorylated proteins were boiled in 2× Sample Buffer (125 mM Tris-HCl [pH 6.8], 4% SDS, 20% glycerol, 1.4 M β-Mercapto ethanol), resolved by 10% SDS-PAGE, and visualized by autoradiography.
In this phosphorylation assay, non-radiolabeled polypeptides to be tested are incubated in the presence of GSK-3β, PKA and radioactive ATP. […]

| SMILES | intensity of the GST-2E11 band versus phosphorylated GST-2E11 reference (inhibition of dephosphorylation) (PP2A phosphatase) | intensity of the GST-2E11 band (phosphorylation) in the presence of LiCl (GSK-3β) |
| --- | --- | --- |
| C=C1[C@@H](O)[C@@H]2O[C@]3(CC[C@H](/C=C/[C@@H](C)[C@@H]4CC(C)=C[C@@]5(O[C@H](C[C@@](C)(O)C(=O)O)CC[C@H]5O)O4)O3)CC[C@H]2O[C@@H]1[C@@H](O)C[C@H](C)[C@H]1O[C@@]2(CCCCO2)CC[C@H]1C [okadaic acid] | only slightly weaker | – |
| [Cl-].[Li+] [LiCl] | – | decreased |
